Measurements taken from PubChem BioAssay AID2060894 (Molecular Pharmacology Branch, DTP, NCI, 2025).

Test system: K12877-001-R-J1-PDC complex spheroid viability
Test: Anticancer human tumor K12877-001-R-J1-PDC patient-derived lung adenocarcinoma cell line growth inhibition [RAS]
Settings: for IC50: curve of first compound; for viability, T/C: stronger effect = lower value; active = viability on the fitted dose curve at most 10% of control; inactive = the rest
Outline: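 Tumour cells grown as complex spheroids with HUVEC endothelial cells and mesenchymal stem cells, treated with RAS pathway inhibitor combinations. Each agent spans half-log steps from near clinical Cmax, or 10 microM where Cmax is unknown.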

[1] = second compound 0.00316 µM, first compound 0.0316 µM
[2] = second compound 0.00316 µM, first compound 0.1 µM
[3] = second compound 0.00316 µM, first compound 0.316 µM
[4] = second compound 0.00316 µM, first compound 1 µM
[5] = second compound 0.00316 µM, first compound 3.16 µM
[6] = second compound 0.00316 µM, first compound 10 µM
[7] = second compound 0.01 µM, first compound 0.0316 µM
[8] = second compound 0.01 µM, first compound 0.1 µM
[9] = second compound 0.01 µM, first compound 0.316 µM
[10] = second compound 0.01 µM, first compound 1 µM
[11] = second compound 0.01 µM, first compound 3.16 µM
[12] = second compound 0.01 µM, first compound 10 µM
[13] = second compound 0.0316 µM, first compound 0.0316 µM
[14] = second compound 0.0316 µM, first compound 0.1 µM
[15] = second compound 0.0316 µM, first compound 0.316 µM
[16] = second compound 0.0316 µM, first compound 1 µM
[17] = second compound 0.0316 µM, first compound 3.16 µM
[18] = second compound 0.0316 µM, first compound 10 µM
[19] = second compound 0.1 µM, first compound 0.0316 µM
[20] = second compound 0.1 µM, first compound 0.1 µM
[21] = second compound 0.1 µM, first compound 0.316 µM
[22] = second compound 0.1 µM, first compound 1 µM
[23] = second compound 0.1 µM, first compound 3.16 µM
[24] = second compound 0.1 µM, first compound 10 µM
[25] = second compound 0.316 µM, first compound 0.0316 µM
[26] = second compound 0.316 µM, first compound 0.1 µM
[27] = second compound 0.316 µM, first compound 0.316 µM
[28] = second compound 0.316 µM, first compound 1 µM
[29] = second compound 0.316 µM, first compound 3.16 µM
[30] = second compound 0.316 µM, first compound 10 µM
[31] = second compound 1 µM, first compound 0.0316 µM
[32] = second compound 1 µM, first compound 0.1 µM
[33] = second compound 1 µM, first compound 0.316 µM
[34] = second compound 1 µM, first compound 1 µM
[35] = second compound 1 µM, first compound 3.16 µM
[36] = second compound 1 µM, first compound 10 µM
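Note: spheroids exposed to agents for one week before readout.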
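Throughout, for viability, T/C: tumour cells co-cultured with HUVEC and mesenchymal stem cells in spheroids.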

CC(C)n1nc(-c2ccc3oc(N)nc3c2)c2c(N)ncnc21 + CCn1c(-c2cccnc2C(C)OC)c2c3cc(ccc31)N1CCOC(CC(NC(=O)C(C(C)C)N(C)C(=O)C3(F)CCN(C(=O)C#CC(C)(C)N(C)C)CC3)C(=O)N3CCCC(N3)C(=O)OCC(C)(C)C2)C1
inactive: viability, T/C (second compound 0.000949 µM, first compound 0.000316 µM) 81.6% | viability, T/C (second compound 0.000949 µM, first compound 0.001 µM) 81.3% | viability, T/C (second compound 0.000949 µM, first compound 0.00316 µM) 78.2% | viability, T/C (second compound 0.000949 µM, first compound 0.01 µM) 47.4% | viability, T/C (second compound 0.000949 µM, first compound 0.0316 µM) 18.7% | viability, T/C (second compound 0.000949 µM, first compound 0.1 µM) 11.9% | viability, T/C (second compound 0.003 µM, first compound 0.000316 µM) 77.6% | viability, T/C (second compound 0.003 µM, first compound 0.001 µM) 80.9% | viability, T/C (second compound 0.003 µM, first compound 0.00316 µM) 66.2% | viability, T/C (second compound 0.003 µM, first compound 0.01 µM) 41.8% | viability, T/C (second compound 0.003 µM, first compound 0.0316 µM) 20.4% | viability, T/C (second compound 0.003 µM, first compound 0.1 µM) 11% | viability, T/C (second compound 0.00949 µM, first compound 0.000316 µM) 77.5% | viability, T/C (second compound 0.00949 µM, first compound 0.001 µM) 76.9% | viability, T/C (second compound 0.00949 µM, first compound 0.00316 µM) 63.4% | viability, T/C (second compound 0.00949 µM, first compound 0.01 µM) 50% | viability, T/C (second compound 0.00949 µM, first compound 0.0316 µM) 16.2% | viability, T/C (second compound 0.03 µM, first compound 0.000316 µM) 69.3% | viability, T/C (second compound 0.03 µM, first compound 0.001 µM) 69.6% | viability, T/C (second compound 0.03 µM, first compound 0.00316 µM) 59.1% | viability, T/C (second compound 0.03 µM, first compound 0.01 µM) 44% | viability, T/C (second compound 0.03 µM, first compound 0.0316 µM) 18.4% | viability, T/C (second compound 0.0949 µM, first compound 0.000316 µM) 68.7% | viability, T/C (second compound 0.0949 µM, first compound 0.001 µM) 61.4% | viability, T/C (second compound 0.0949 µM, first compound 0.00316 µM) 50% | viability, T/C (second compound 0.0949 µM, first compound 0.01 µM) 37.8% | viability, T/C (second compound 0.0949 µM, first compound 0.0316 µM) 12.2% | viability, T/C (second compound 0.3 µM, first compound 0.000316 µM) 65% | viability, T/C (second compound 0.3 µM, first compound 0.001 µM) 53.1% | viability, T/C (second compound 0.3 µM, first compound 0.00316 µM) 39.8% | viability, T/C (second compound 0.3 µM, first compound 0.01 µM) 28.8% | viability, T/C (second compound 0.3 µM, first compound 0.0316 µM) 12.6%
6.3 nM: IC50 (second compound 0.03 µM)
8.2 nM: IC50 (second compound 0.00949 µM)
6.95 nM: IC50 (second compound 0.003 µM)
3.56 nM: IC50 (second compound 0.0949 µM)
1.37 nM: IC50 (second compound 0.3 µM)
active: viability, T/C (second compound 0.00949 µM, first compound 0.1 µM) 8.87% | viability, T/C (second compound 0.03 µM, first compound 0.1 µM) 7.89% | viability, T/C (second compound 0.0949 µM, first compound 0.1 µM) 7.05% | viability, T/C (second compound 0.3 µM, first compound 0.1 µM) 6.48%
9.24 nM: IC50 (second compound 0.000949 µM)

CC(Nc1ccc2c(c1)OCCn1cc(N3C(=O)OCC3C(F)F)nc1-2)C(N)=O (stereo unspecified) + C=CC(=O)N1CCN(c2nc(OCC3CCCN3C)nc3c(F)c(-c4nc(N)cc(C)c4C(F)(F)F)c(Cl)cc23)C(C)C1
1920 nM: IC50 (second compound 0.01 µM)
1160 nM: IC50 (second compound 0.316 µM)
1220 nM: IC50 (second compound 0.00316 µM)
inactive: viability, T/C [1] 92% | viability, T/C [2] 72.8% | viability, T/C [3] 57.6% | viability, T/C [4] 61.6% | viability, T/C [5] 44.9% | viability, T/C [6] 21.3% | viability, T/C [7] 86.3% | viability, T/C [8] 69.6% | viability, T/C [9] 57.9% | viability, T/C [10] 64% | viability, T/C [11] 48.7% | viability, T/C [12] 18.7% | viability, T/C [13] 74.3% | viability, T/C [14] 78.4% | viability, T/C [15] 57.6% | viability, T/C [16] 63.1% | viability, T/C [17] 46.2% | viability, T/C [18] 16.8% | viability, T/C [19] 76.7% | viability, T/C [20] 64.7% | viability, T/C [21] 65% | viability, T/C [22] 63.2% | viability, T/C [23] 40.4% | viability, T/C [24] 15% | viability, T/C [25] 75.9% | viability, T/C [26] 79.1% | viability, T/C [27] 62.3% | viability, T/C [28] 50.9% | viability, T/C [29] 37.6% | viability, T/C [30] 19.1% | viability, T/C [31] 77% | viability, T/C [32] 70.9% | viability, T/C [33] 62.2% | viability, T/C [34] 53.1% | viability, T/C [35] 43.5% | viability, T/C [36] 19.6%
1430 nM: IC50 (second compound 1 µM)
1860 nM: IC50 (second compound 0.1 µM)
2120 nM: IC50 (second compound 0.0316 µM)

CC(=O)OC12COC1CC(O)C1(C)C(=O)C(O)C3=C(C)C(OC(=O)C(O)C(NC(=O)OC(C)(C)C)c4ccccc4)CC(O)(C(OC(=O)c4ccccc4)C21)C3(C)C (stereo unspecified) + C=CC(=O)N1CCN(c2nc(OCC3CCCN3C)nc3c(F)c(-c4nc(N)cc(C)c4C(F)(F)F)c(Cl)cc23)C(C)C1
active: viability, T/C [1] 5.23% | viability, T/C [2] 4.77% | viability, T/C [3] 3.44% | viability, T/C [4] 4.18% | viability, T/C [5] 4.77% | viability, T/C [6] 16.1% | viability, T/C [7] 5.39% | viability, T/C [8] 5.01% | viability, T/C [9] 3.61% | viability, T/C [10] 2.92% | viability, T/C [11] 3.84% | viability, T/C [12] 13.6% | viability, T/C [13] 6.48% | viability, T/C [14] 4.68% | viability, T/C [15] 3.7% | viability, T/C [16] 2.91% | viability, T/C [17] 3.42% | viability, T/C [18] 10.1% | viability, T/C [19] 6.61% | viability, T/C [20] 4.59% | viability, T/C [21] 2.95% | viability, T/C [22] 3.77% | viability, T/C [23] 5.42% | viability, T/C [24] 11.1% | viability, T/C [25] 5.94% | viability, T/C [26] 3.96% | viability, T/C [27] 3.29% | viability, T/C [28] 3.54% | viability, T/C [29] 4.12% | viability, T/C [30] 10.3% | viability, T/C [31] 4.92% | viability, T/C [32] 3.77% | viability, T/C [33] 4.87% | viability, T/C [34] 4.09% | viability, T/C [35] 4.48% | viability, T/C [36] 11%
< 31.6 nM: IC50 (second compound 0.00316 µM) | IC50 (second compound 0.01 µM) | IC50 (second compound 0.0316 µM) | IC50 (second compound 0.1 µM) | IC50 (second compound 0.316 µM) | IC50 (second compound 1 µM)
